Source: patent US12382888B2, “Compositions and methods for modulating immunity in plants” (Boyce Thompson Institute for Plant Research, Inc., priority 2013, dated 2025)
Entries after “also recorded” stand apart in the source; their conditions may differ.

System: Turnip Crinkle Virus (TCV)
Assay: Resistance of Arabidopsis to Turnip Crinkle Virus (coat protein immunoblot, symptoms)
Assay type: in vivo
Conditions: root pretreatment 1 μM

CC1O[C@@H](O[C@@H](C)CCCCCCCCC(=O)O)C(O)C[C@H]1O (stereo in doubt) [ascr #18, (10R)-(3′R,5′R-dihydroxy-6′S-methyl-(2H)-tetrahydropyran-2-yloxy)-undecanoic Acid]
resistance to virulent TCV: dramatically enhanced resistance; also recorded: enhanced basal resistance
disease symptoms (chlorosis, lesions, suppression of inflorescent development) (6 dpi): greatly reduced
systemic spread of the virus (distal leaves): largely abolished
viral replication (amount of viral coat protein) (inoculated and distal leaves, immune blot): greatly reduced
